{"source": "patent US12364709B2", "about": "“Bioavailable poly amines” (AMINEX THERAPEUTICS, INC., priority 2016, dated 2025)", "test": "28-day repeat-dose toxicity study, toxicokinetics of AMXT 1501 dicaprate", "assay_type": "in vivo, beagle dogs", "settings": "both sexes, beagle, dog, plasma, po", "procedure": "AMXT 1501 PK parameters were calculated for all AMXT 1501 dicaprate-dosed animals for the first dose (Day 1) and last dose (Day 28).", "note": "Like-named read-outs stand apart in the source and are kept apart here."}
{"smiles": "CCCCCCCCCCCCCCCC(=O)NCCCC[C@@H](N)C(=O)NCCCNCCCCNCCCN", "note": "[AMXT 1501 dicaprate]", "values": [{"measurement": "AUC(0-t)", "setting": "16 mg/kg/day, 16 mg/kg/day PO, DFMO 0, Day 28, M+F combined, read-out: AUC0-t Median", "result": 8120, "unit": "ng·h/mL"}, {"measurement": "AUC(0-inf)", "setting": "16 mg/kg/day, 16 mg/kg/day PO, DFMO 0, Day 28, M+F combined, read-out: AUC0-∞ Mean", "result": 8070, "unit": "ng·h/mL"}, {"measurement": "AUC(0-inf)", "setting": "16 mg/kg/day, 16 mg/kg/day PO, DFMO 0, Day 28, M+F combined, read-out: AUC0-∞ Median", "result": 8280, "unit": "ng·h/mL"}, {"measurement": "Cmax", "setting": "16 mg/kg/day, 16 mg/kg/day PO, DFMO 0, Day 28, M+F combined, read-out: Cmax Mean", "result": 286, "unit": "ng/mL"}, {"measurement": "Cmax", "setting": "16 mg/kg/day, 16 mg/kg/day PO, DFMO 0, Day 28, M+F combined, read-out: Cmax Median", "result": 309, "unit": "ng/mL"}, {"measurement": "Tmax", "setting": "16 mg/kg/day, 16 mg/kg/day PO, DFMO 0, Day 28, M+F combined, read-out: Tmax Mean", "result": 5.6, "unit": "h"}, {"measurement": "Tmax", "setting": "16 mg/kg/day, 16 mg/kg/day PO, DFMO 0, Day 28, M+F combined, read-out: Tmax Median", "result": 6, "unit": "h"}, {"measurement": "half-life", "setting": "16 mg/kg/day, 16 mg/kg/day PO, DFMO 0, Day 28, M+F combined, read-out: t1/2 Mean (converted)", "result": 25.4, "unit": "h"}, {"measurement": "half-life", "setting": "16 mg/kg/day, 16 mg/kg/day PO, DFMO 0, Day 28, M+F combined, read-out: t1/2 Median (converted)", "result": 27.8, "unit": "h"}, {"measurement": "AUC(0-t)", "setting": "16 mg/kg/day, 16 mg/kg/day PO, DFMO 50 mg/kg/day, Day 28, M+F combined, read-out: AUC0-24 hr Mean", "result": 4390, "unit": "ng·h/mL"}, {"measurement": "AUC(0-t)", "setting": "16 mg/kg/day, 16 mg/kg/day PO, DFMO 50 mg/kg/day, Day 28, M+F combined, read-out: AUC0-24 hr Median", "result": 3340, "unit": "ng·h/mL"}, {"measurement": "AUC(0-t)", "setting": "16 mg/kg/day, 16 mg/kg/day PO, DFMO 50 mg/kg/day, Day 28, M+F combined, read-out: AUC0-t Mean", "result": 9440, "unit": "ng·h/mL"}, {"measurement": "AUC(0-t)", "setting": "16 mg/kg/day, 16 mg/kg/day PO, DFMO 50 mg/kg/day, Day 28, M+F combined, read-out: AUC0-t Median", "result": 6010, "unit": "ng·h/mL"}, {"measurement": "AUC(0-inf)", "setting": "16 mg/kg/day, 16 mg/kg/day PO, DFMO 50 mg/kg/day, Day 28, M+F combined, read-out: AUC0-∞ Mean", "result": 9590, "unit": "ng·h/mL"}, {"measurement": "AUC(0-inf)", "setting": "16 mg/kg/day, 16 mg/kg/day PO, DFMO 50 mg/kg/day, Day 28, M+F combined, read-out: AUC0-∞ Median", "result": 6080, "unit": "ng·h/mL"}, {"measurement": "Cmax", "setting": "16 mg/kg/day, 16 mg/kg/day PO, DFMO 50 mg/kg/day, Day 28, M+F combined, read-out: Cmax Mean", "result": 262, "unit": "ng/mL"}, {"measurement": "Cmax", "setting": "16 mg/kg/day, 16 mg/kg/day PO, DFMO 50 mg/kg/day, Day 28, M+F combined, read-out: Cmax Median", "result": 213, "unit": "ng/mL"}, {"measurement": "Tmax", "setting": "16 mg/kg/day, 16 mg/kg/day PO, DFMO 50 mg/kg/day, Day 28, M+F combined, read-out: Tmax Mean", "result": 6.3, "unit": "h"}, {"measurement": "Tmax", "setting": "16 mg/kg/day, 16 mg/kg/day PO, DFMO 50 mg/kg/day, Day 28, M+F combined, read-out: Tmax Median", "result": 6, "unit": "h"}, {"measurement": "half-life", "setting": "16 mg/kg/day, 16 mg/kg/day PO, DFMO 50 mg/kg/day, Day 28, M+F combined, read-out: t1/2 Mean (converted)", "result": 52.8, "unit": "h"}, {"measurement": "half-life", "setting": "16 mg/kg/day, 16 mg/kg/day PO, DFMO 50 mg/kg/day, Day 28, M+F combined, read-out: t1/2 Median (converted)", "result": 57.8, "unit": "h"}, {"measurement": "AUC(0-t)", "setting": "16 mg/kg/day, 16 mg/kg/day PO, DFMO 200 mg/kg/day, Day 1, M+F combined, read-out: AUC0-24 hr Mean", "result": 2310, "unit": "ng·h/mL"}, {"measurement": "AUC(0-t)", "setting": "16 mg/kg/day, 16 mg/kg/day PO, DFMO 200 mg/kg/day, Day 1, M+F combined, read-out: AUC0-24 hr Median", "result": 2470, "unit": "ng·h/mL"}, {"measurement": "Cmax", "setting": "16 mg/kg/day, 16 mg/kg/day PO, DFMO 200 mg/kg/day, Day 1, M+F combined, read-out: Cmax Mean", "result": 152, "unit": "ng/mL"}, {"measurement": "Cmax", "setting": "16 mg/kg/day, 16 mg/kg/day PO, DFMO 200 mg/kg/day, Day 1, M+F combined, read-out: Cmax Median", "result": 171, "unit": "ng/mL"}, {"measurement": "Tmax", "setting": "16 mg/kg/day, 16 mg/kg/day PO, DFMO 200 mg/kg/day, Day 1, M+F combined, read-out: Tmax Mean", "result": 8.4, "unit": "h"}, {"measurement": "Tmax", "setting": "16 mg/kg/day, 16 mg/kg/day PO, DFMO 200 mg/kg/day, Day 1, M+F combined, read-out: Tmax Median", "result": 6, "unit": "h"}, {"measurement": "AUC(0-t)", "setting": "32 mg/kg/day, 32 mg/kg/day PO, DFMO 0, Day 1, M+F combined, read-out: AUC0-24 hr Mean", "result": 3590, "unit": "ng·h/mL"}, {"measurement": "AUC(0-t)", "setting": "32 mg/kg/day, 32 mg/kg/day PO, DFMO 0, Day 1, M+F combined, read-out: AUC0-24 hr Median", "result": 3640, "unit": "ng·h/mL"}, {"measurement": "Cmax", "setting": "32 mg/kg/day, 32 mg/kg/day PO, DFMO 0, Day 1, M+F combined, read-out: Cmax Mean", "result": 214, "unit": "ng/mL"}, {"measurement": "Cmax", "setting": "32 mg/kg/day, 32 mg/kg/day PO, DFMO 0, Day 1, M+F combined, read-out: Cmax Median", "result": 224, "unit": "ng/mL"}, {"measurement": "Tmax", "setting": "32 mg/kg/day, 32 mg/kg/day PO, DFMO 0, Day 1, M+F combined, read-out: Tmax Mean", "result": 8.6, "unit": "h"}, {"measurement": "Tmax", "setting": "32 mg/kg/day, 32 mg/kg/day PO, DFMO 0, Day 1, M+F combined, read-out: Tmax Median", "result": 9, "unit": "h"}, {"measurement": "AUC(0-t)", "setting": "32 mg/kg/day, 32 mg/kg/day PO, DFMO 0, Day 28, M+F combined, read-out: AUC0-24 hr Mean", "result": 9410, "unit": "ng·h/mL"}, {"measurement": "AUC(0-t)", "setting": "32 mg/kg/day, 32 mg/kg/day PO, DFMO 0, Day 28, M+F combined, read-out: AUC0-24 hr Median", "result": 8760, "unit": "ng·h/mL"}, {"measurement": "AUC(0-t)", "setting": "32 mg/kg/day, 32 mg/kg/day PO, DFMO 0, Day 28, M+F combined, read-out: AUC0-t Mean", "result": 24700, "unit": "ng·h/mL"}, {"measurement": "AUC(0-t)", "setting": "32 mg/kg/day, 32 mg/kg/day PO, DFMO 0, Day 28, M+F combined, read-out: AUC0-t Median", "result": 24300, "unit": "ng·h/mL"}, {"measurement": "AUC(0-inf)", "setting": "32 mg/kg/day, 32 mg/kg/day PO, DFMO 0, Day 28, M+F combined, read-out: AUC0-∞ Mean", "result": 24800, "unit": "ng·h/mL"}, {"measurement": "AUC(0-inf)", "setting": "32 mg/kg/day, 32 mg/kg/day PO, DFMO 0, Day 28, M+F combined, read-out: AUC0-∞ Median", "result": 24400, "unit": "ng·h/mL"}, {"measurement": "Cmax", "setting": "32 mg/kg/day, 32 mg/kg/day PO, DFMO 0, Day 28, M+F combined, read-out: Cmax Mean", "result": 620, "unit": "ng/mL"}, {"measurement": "Cmax", "setting": "32 mg/kg/day, 32 mg/kg/day PO, DFMO 0, Day 28, M+F combined, read-out: Cmax Median", "result": 620, "unit": "ng/mL"}, {"measurement": "Tmax", "setting": "32 mg/kg/day, 32 mg/kg/day PO, DFMO 0, Day 28, M+F combined, read-out: Tmax Mean", "result": 4.3, "unit": "h"}, {"measurement": "Tmax", "setting": "32 mg/kg/day, 32 mg/kg/day PO, DFMO 0, Day 28, M+F combined, read-out: Tmax Median", "result": 4, "unit": "h"}, {"measurement": "half-life", "setting": "32 mg/kg/day, 32 mg/kg/day PO, DFMO 0, Day 28, M+F combined, read-out: t1/2 Mean (converted)", "result": 48.7, "unit": "h"}, {"measurement": "half-life", "setting": "32 mg/kg/day, 32 mg/kg/day PO, DFMO 0, Day 28, M+F combined, read-out: t1/2 Median (converted)", "result": 53.2, "unit": "h"}]}
